Assay results from patent US20100137412A1 (priority 2008, published 2010).

What was measured:
VSV-G pseudotypes = assay type: cell-based, vesicular stomatitis virus
[1] = test system: pseudotypes expressing H5HA and N1NA; assay type: cell-based, H5N1
[2] = test system: HIV-1 envelope pseudotypes; assay type: cell-based
[3] = test system: H5HA and N1NA pseudotypes; assay type: cell-based, H5N1

## CCOC(=O)C1=C[C@@H](OC(CC)CC)[C@H](NC(C)=O)[C@@H](N)C1 [oseltamivir phosphate]
VSV-G pseudotypes
  effect on transduction efficiency: did not reduce
[1]
  effect on transduction efficiency: marked dose-dependent decrease
[2]
  effect on transduction efficiency: did not reduce
[3]
  effect on transduction efficiency: did not reduce
